# Experimental data as given in US7049331B2, “1,2,4-thiadiazole derivatives as melanocortin receptor modulators” (Ortho-McNeil Pharmaceutical, Inc., priority 2001, dated 2006).
# Columns and labels:
# [1] = target: T1, melanocortin MC-4 receptor (Homo sapiens, UniProt P32245); experiment: Melanocortin MC-4 Receptor Binding Assay (SPA)
# T1 construct: purchased Receptor Biology Inc
# Experimental: Melanocortin MC-4 Receptor Binding Assay Melanocortin [MC-4]-membrane [purchased from Receptor Biology Inc] was coupled to wheat germ agglutinin coated polyvinyl toluene-Scintillation Proximity Assay beads [purchased from Amersham Pharmacia Inc.] for 30 min at 25° C. Into each well of a 96-well Opti plate [purchased from Packard, Calif.], 2.5 μg of membrane and 0.25 mg of beads were mixed in a volume of 100 μL media. […] Test compounds (1.5 μL) at 1 mM in 30% DMSO-50 mM HEPES, pH 7.4 buffer was added to separate wells on the plate. Radioactive ligand ^125I-NDP-melanocyte stimulating hormone [NEN, 2000Ci/mmol] was added to each well (48.5 μL per well, 40 pM final concentration). The plate was then sealed and let stand for 16 hr at 25° C. NDP-Melanocyte stimulating hormone peptide and α-melanocyte stimulating hormone peptide [purchased from Palomar Research Inc, 1 μM] were used as reference inhibitor compounds to define non-specific binding (N). Total binding (T) was defined using 30% DMSO-50 mM HEPES, pH 7.4 buffer. Bound radioactivity for each well (Y), measured at counts per minute (cpm) was measured in a TopCount [Packard, Calif.]. Percent inhibition was calculated as: […] The procedures described above for the melanocortin MC-4 receptor were repeated for the melanocortin MC-3 receptor. Following the procedures described, representative compounds of the present invention were tested for binding in the MC-4 and/or MC-3 assay, as listed in Table 4.
# Cortical Cells = experiment: Neurite Cell Outgrowth Assay, cortical cells; assay type: cell-based; conditions: Rattus norvegicus; 50 nM; percent change over the vehicle response; NA = no change/not active
# Source text: (§1) Dissociated hippocampal and cortical cell cultures were established from embryonic day 18 rat fetuses as described by Mattson, M. P., Barger, S. W., Begley, J, and Mark, R. J., Methods Cell Biol., 1994, 46:[…]. Briefly, fetuses were removed via cesarean section from pregnant moms (Sprague-Dawley) and anesthetized with halothane according to the AVMA Panel on Euthanasia. Pups were decapitated and the brains were removed and placed in HEPES-buffered Hank's Balanced Salt solution (HBSS; Gibco). The hippocampi and cortices were dissected out and pooled according to tissue-type. Tissue was trypsinized for 15 min (1 mg/ml trypsin-HBSS; Worthington), rinsed with fresh HBSS, incubated in trypsin inhibitor (1 mg/ml; Sigma) for 5 min, rinsed again with fresh HBSS and then triturated in 1 ml fresh HBSS with a fire-polished glass pipette. Dissociated cells were seeded at 30,000 cells/well onto poly-D-lysine coated 96-well plates (Collaborative BioScience). Each well contained 100 μl of Eagle's Minimal Essential Media (MEM; Gibco) supplemented with 26 mM NaHCO3 (Sigma), 56 mM glucose (Sigma), 15 mM KCl (Sigma), 1 mM sodium pyruvate (Sigma), 1.1 mM L-glutamine (Sigma), 10% (v/v) heat-inactivated fetal bovine serum (Hyclone), and 0.001% gentamicin sulfate (Sigma) (pH 7.4). Cells were allowed to attach for 24 h in a humidified 37° C. 5% CO2 incubator before experimental treatment. The culture media was aspirated and exchanged with fresh media every 3 days.
# (§2) Twenty-four hours after plating, cultures were treated with vehicle (PBS+0.1% BSA), alpha-melanocyte stimulating hormone (α-MSH) or test compound (diluted in DPBS). Each treatment condition was run in quadruplicate. On the third day in culture, the media was aspirated off and replaced with fresh media and test compound. At one week in culture, the cells were fixed with 10% phosphate-buffered formalin for 15 min, then rinsed with DPBS (Sigma) and placed in blocking serum for 30 min (horse serum; 1:50 dilution in DPBS; Vector Labs). The cultures were rinsed again with DPBS and then incubated in primary antibody for 2 hr (microtubule-associated protein-2 (MAP-2) is a selective marker for dendritic processes; anti-mouse monoclonal (Chemicon); 1:1000 dilution of MAP-2 in antibody diluent (Zymed)). Negative control wells were incubated in antibody diluent alone. Background signal was determined by blank wells (cell-free) incubated with or without antibody. Cultures were rinsed again with DPBS and then placed in fluorescein for 1 hr (FITC; anti-mouse IgG; rat adsorbed; 1:50 dilution in DPBS; Vector Labs). Cultures were rinsed a final time with DPBS and the plates were then read on a Cytofluor 4000 fluorescence plate reader. Neurite outgrowth was expressed as percent change from control (vehicle).
# (§3) The data are expressed as percent change over the vehicle response. All compounds were screened at 50 nM. The abbreviation NA indicates no change/not active; the abbreviation ND indicates a compound not tested/response not determined.
# Hippocampal Cells = experiment: Neurite Cell Outgrowth Assay, hippocampal cells; assay type: cell-based; conditions: Rattus norvegicus; 50 nM; percent change over the vehicle response; NA = no change/not active
# Source text: as §1, §2, §3
# T1 sequence (P32245 whole entry): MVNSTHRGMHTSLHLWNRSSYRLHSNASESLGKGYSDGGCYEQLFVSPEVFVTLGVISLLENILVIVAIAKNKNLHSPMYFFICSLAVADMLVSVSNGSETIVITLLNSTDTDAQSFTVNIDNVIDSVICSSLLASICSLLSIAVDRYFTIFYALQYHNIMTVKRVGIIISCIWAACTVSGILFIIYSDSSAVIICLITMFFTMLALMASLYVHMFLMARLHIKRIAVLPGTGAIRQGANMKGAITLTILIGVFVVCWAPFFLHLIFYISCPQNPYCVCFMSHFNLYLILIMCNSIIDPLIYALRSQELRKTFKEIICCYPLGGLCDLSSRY
structure (smiles),measurement,setting,value
COc1ccc(Nc2nc(-c3ccc(C)cc3)[n+](-c3ccccc3OC)s2)cc1 [Compound 66],IC50,[1],120 nM
COc1ccc(-c2nc(Nc3ccccc3OC)s[n+]2-c2ccc(OC)cc2)cc1 [Compound 59],activation at 0.05 µM,Cortical Cells,21%
same,IC50 MC-4 (nM) (SPA),[1],inactive
same,activation at 0.05 µM,Hippocampal Cells,61%
COc1ccccc1-[n+]1sc(Nc2ccccc2C)nc1-c1ccc(C)cc1 [Compound 69],IC50,[1],139 nM
COc1ccccc1-[n+]1sc(Nc2ccccc2)nc1-c1ccccc1 [Compound 28],activation at 0.05 µM,Cortical Cells,25%
same,IC50,[1],68 nM
COc1ccccc1Nc1nc(-c2ccccc2)[n+](-c2ccccc2OC)s1 [Compound 30],IC50,[1],103 nM
COc1ccccc1-c1nc(Nc2cccnc2)s[n+]1-c1ccccc1OC [Compound 81],IC50,[1],672 nM
Cc1ccc(Nc2nc(-c3ccccc3)[n+](-c3ccccc3)s2)cc1 [Compound 25],activation at 0.05 µM,Cortical Cells,23%
same,IC50,[1],57 nM
COc1ccc(-c2nc(Nc3ccccc3)s[n+]2-c2ccc(OC)cc2)cc1 [Compound 57],IC50 MC-4 (nM) (SPA),[1],inactive
same,activation at 0.05 µM,Hippocampal Cells,9%
COc1ccccc1-c1nc(Nc2ccc(C)cc2)s[n+]1-c1ccccc1OC [Compound 77],IC50,[1],4.4 nM
COc1ccc(-[n+]2sc(Nc3ccc(Cl)cc3)nc2-c2ccccc2)cc1 [Compound 40],IC50,[1],133 nM
same,activation at 0.05 µM,Hippocampal Cells,26%
COc1ccc(-c2nc(Nc3cccnc3)s[n+]2-c2ccc(OC)cc2)cc1 [Compound 64],activation at 0.05 µM,Cortical Cells,12%
same,IC50,[1],1200 nM
same,activation at 0.05 µM,Hippocampal Cells,22%
Clc1ccc(Nc2nc(-c3ccccc3)[n+](-c3ccccc3Cl)s2)cc1 [Compound 47],activation at 0.05 µM,Cortical Cells,13%
same,IC50,[1],874 nM
same,activation at 0.05 µM,Hippocampal Cells,20%
COc1ccc(CNc2nc(-c3ccccc3)[n+](-c3ccccc3)s2)cc1 [Compound 51],activation at 0.05 µM,Cortical Cells,28%
same,IC50,[1],1000 nM
same,activation at 0.05 µM,Hippocampal Cells,74%
COc1ccc(Nc2nc(-c3ccccc3OC)[n+](-c3ccccc3OC)s2)cc1 [Compound 75],IC50,[1],103 nM
COc1ccccc1-[n+]1sc(Nc2ccc(Cl)cc2)nc1-c1ccccc1 [Compound 33],activation at 0.05 µM,Cortical Cells,21%
same,IC50,[1],91 nM
COc1ccc(Nc2nc(-c3ccccc3)[n+](-c3ccc(OC)cc3)s2)cc1 [Compound 36],activation at 0.05 µM,Cortical Cells,16%
same,IC50,[1],79 nM
COc1ccccc1-c1nc(Nc2ccccc2C)s[n+]1-c1ccccc1OC [Compound 78],IC50,[1],99 nM
Cc1ccc(CNc2nc(-c3ccccc3)[n+](-c3ccccc3)s2)cc1 [Compound 53],IC50,[1],1000 nM
same,activation at 0.05 µM,Hippocampal Cells,67%
COc1ccccc1-c1nc(Nc2ccc(Cl)cc2)s[n+]1-c1ccccc1OC [Compound 79],IC50,[1],216 nM
Cc1ccc(Nc2nc(-c3ccccc3)[n+](-c3ccccc3Cl)s2)cc1 [Compound 45],activation at 0.05 µM,Cortical Cells,25%
same,IC50,[1],246 nM
same,activation at 0.05 µM,Hippocampal Cells,46%
c1ccc(Nc2nc(-c3ccccc3)[n+](-c3ccccc3)s2)cc1 [Compound 22],activation at 0.05 µM,Cortical Cells,30%
same,IC50,[1],124 nM
COc1ccccc1-[n+]1sc(Nc2cccnc2)nc1-c1ccc(C)cc1 [Compound 72],IC50,[1],155 nM
COc1ccccc1Nc1nc(-c2ccccc2)[n+](-c2ccccc2)s1 [Compound 24],activation at 0.05 µM,Cortical Cells,16%
same,IC50,[1],76 nM
same,activation at 0.05 µM,Hippocampal Cells,10%
COc1ccc(-[n+]2sc(Nc3ccccc3Cl)nc2-c2ccccc2)cc1 [Compound 41],activation at 0.05 µM,Cortical Cells,5%
same,IC50,[1],483 nM
same,activation at 0.05 µM,Hippocampal Cells,36%
COc1ccccc1-[n+]1sc(Nc2cccnc2)nc1-c1ccccc1 [Compound 73],IC50,[1],725 nM
COc1ccc(-c2nc(Nc3ccccc3C)s[n+]2-c2ccc(OC)cc2)cc1 [Compound 61],activation at 0.05 µM,Cortical Cells,17%
same,IC50 MC-4 (nM) (SPA),[1],inactive
same,activation at 0.05 µM,Hippocampal Cells,66%
Cc1ccccc1CNc1nc(-c2ccccc2)[n+](-c2ccccc2)s1 [Compound 54],IC50,[1],800 nM
same,activation at 0.05 µM,Hippocampal Cells,45%
COc1ccccc1-[n+]1sc(Nc2ccc(C)cc2)nc1-c1ccc(C)cc1 [Compound 68],IC50,[1],110 nM
COc1ccc(-[n+]2sc(Nc3ccc(C)cc3)nc2-c2ccccc2)cc1 [Compound 38],IC50,[1],159 nM
COc1ccc(-c2nc(Nc3ccc(Cl)cc3)s[n+]2-c2ccc(OC)cc2)cc1 [Compound 62],activation at 0.05 µM,Cortical Cells,13%
same,IC50 MC-4 (nM) (SPA),[1],inactive
same,activation at 0.05 µM,Hippocampal Cells,13%
COc1ccc(-[n+]2sc(Nc3ccccc3OC)nc2-c2ccccc2)cc1 [Compound 37],activation at 0.05 µM,Cortical Cells,26%
same,IC50,[1],72 nM
COc1ccc(-[n+]2sc(Nc3ccccc3)nc2-c2ccccc2)cc1 [Compound 35],activation at 0.05 µM,Cortical Cells,28%
same,IC50,[1],100 nM
COc1ccccc1CNc1nc(-c2ccccc2)[n+](-c2ccccc2)s1 [Compound 52],IC50,[1],1000 nM
same,activation at 0.05 µM,Hippocampal Cells,65%
COc1ccccc1-[n+]1sc(Nc2ccccc2Cl)nc1-c1ccc(C)cc1 [Compound 71],IC50,[1],234 nM
COc1ccccc1-[n+]1sc(Nc2ccccc2)nc1-c1ccc(C)cc1 [Compound 65],IC50,[1],114 nM
COc1ccccc1Nc1nc(-c2ccccc2)[n+](-c2ccccc2Cl)s1 [Compound 44],activation at 0.05 µM,Cortical Cells,19%
same,IC50,[1],89 nM
same,activation at 0.05 µM,Hippocampal Cells,43%
Clc1ccccc1CNc1nc(-c2ccccc2)[n+](-c2ccccc2)s1 [Compound 56],IC50,[1],3000 nM
same,activation at 0.05 µM,Hippocampal Cells,33%
COc1ccc(Nc2nc(-c3ccccc3)[n+](-c3ccccc3)s2)cc1 [Compound 23],activation at 0.05 µM,Cortical Cells,20%
same,IC50,[1],124 nM
same,activation at 0.05 µM,Hippocampal Cells,10%
COc1ccc(Nc2nc(-c3ccccc3)[n+](-c3ccccc3Cl)s2)cc1 [Compound 43],activation at 0.05 µM,Cortical Cells,37%
same,IC50,[1],237 nM
same,activation at 0.05 µM,Hippocampal Cells,30%
COc1ccc(-c2nc(Nc3ccc(C)cc3)s[n+]2-c2ccc(OC)cc2)cc1 [Compound 60],activation at 0.05 µM,Cortical Cells,14%
same,IC50 MC-4 (nM) (SPA),[1],inactive
same,activation at 0.05 µM,Hippocampal Cells,66%
Clc1ccc(CNc2nc(-c3ccccc3)[n+](-c3ccccc3)s2)cc1 [Compound 55],IC50,[1],800 nM
same,activation at 0.05 µM,Hippocampal Cells,19%
COc1ccc(-c2nc(Nc3ccccc3Cl)s[n+]2-c2ccc(OC)cc2)cc1 [Compound 63],activation at 0.05 µM,Cortical Cells,17%
same,IC50,[1],1000 nM
same,activation at 0.05 µM,Hippocampal Cells,20%
COc1ccc(Nc2nc(-c3ccc(OC)cc3)[n+](-c3ccc(OC)cc3)s2)cc1 [Compound 58],activation at 0.05 µM,Cortical Cells,10%
same,IC50 MC-4 (nM) (SPA),[1],inactive
same,activation at 0.05 µM,Hippocampal Cells,72%
Cc1ccccc1Nc1nc(-c2ccccc2)[n+](-c2ccccc2Cl)s1 [Compound 46],activation at 0.05 µM,Cortical Cells,19%
same,IC50,[1],368 nM
same,activation at 0.05 µM,Hippocampal Cells,40%
Clc1ccccc1Nc1nc(-c2ccccc2)[n+](-c2ccccc2Cl)s1 [Compound 48],activation at 0.05 µM,Cortical Cells,19%
same,IC50,[1],444 nM
COc1ccc(-[n+]2sc(Nc3ccccc3C)nc2-c2ccccc2)cc1 [Compound 39],IC50,[1],146 nM
Clc1ccccc1-[n+]1sc(Nc2ccccc2)nc1-c1ccccc1 [Compound 42],IC50,[1],482 nM
same,activation at 0.05 µM,Hippocampal Cells,26%
